Data: patent publication US20140120232A1, “ACID TASTE/ACID SMELL-REDUCING AGENT” (T. HASEGAWA CO., LTD., priority 2011, published 2014)

Legend:
[1] = Sensory evaluation of orange juice containing the agent; conditions: ten panels
Procedure: (§1) Sensory evaluation of each drink was carried out by ten panels. […] The piercing aroma characteristic to aldehydes is a characteristic aroma common to every aldehyde and refers to an irritant off-smell giving an image of deteriorated oils and fats, soap, metals, Houttuynia cordata, etc. The judgment of smell was performed by comparing the effects at different concentrations of the acid taste and/or acid smell-reducing agent, and a concentration giving the highest acid taste/acid smell quality was selected.
To commercially available 100% orange juice was added (Z,Z)-4,7-tridecadienal as the acid taste and/or acid smell-reducing agent of the present invention in concentrations shown in the following Table 12 to give orange juice containing the agent, followed by sensory evaluation as in Example 1.

[2] = Sensory evaluation of mayonnaise containing the agent; conditions: ten panels
Procedure: as §1
A mayonnaise base material (100 g) was prepared by mixing 12 g of edible vinegar, 75 g of vegetable oils and fats, and 13 g of an aqueous solution containing egg yolk and spices. To the resulting mixture was added (Z,Z)-4,7-tridecadienal as the acid taste and/or acid smell-reducing agent of the present invention in concentrations shown in the following Table 11 to give mayonnaise containing the agent, followed by sensory evaluation as in Example 1.

## CCCCC/C=C\C/C=C\CCC=O [(Z,Z)-4,7-tridecadienal]
[1]; 0.005 ppt
  A: number of panels, acid taste/acid smell extreme and cause irritation: 10
  B: number of panels, acid taste/acid smell slightly strong and slightly cause irritation: 0
  C: number of panels, acid taste/acid smell slightly unpleasant: 0
  Flavor judgment: number of panels who judged acid taste/acid smell quality the highest: 0
  N: number of panels, irritation of acid reduced to give a mild acid taste: 0
  X: number of panels, acid taste reduced but piercing odor characteristic to aldehydes unpleasant: 0
[1]; 0.02 ppt
  A: number of panels, acid taste/acid smell extreme and cause irritation: 9
  B: number of panels, acid taste/acid smell slightly strong and slightly cause irritation: 1
  C: number of panels, acid taste/acid smell slightly unpleasant: 0
  Flavor judgment: number of panels who judged acid taste/acid smell quality the highest: 0
  N: number of panels, irritation of acid reduced to give a mild acid taste: 0
  X: number of panels, acid taste reduced but piercing odor characteristic to aldehydes unpleasant: 0
[1]; 0.1 ppt
  A: number of panels, acid taste/acid smell extreme and cause irritation: 8
  B: number of panels, acid taste/acid smell slightly strong and slightly cause irritation: 1
  C: number of panels, acid taste/acid smell slightly unpleasant: 1
  Flavor judgment: number of panels who judged acid taste/acid smell quality the highest: 0
  N: number of panels, irritation of acid reduced to give a mild acid taste: 0
  X: number of panels, acid taste reduced but piercing odor characteristic to aldehydes unpleasant: 0
[1]; 0.2 ppt
  A: number of panels, acid taste/acid smell extreme and cause irritation: 6
  B: number of panels, acid taste/acid smell slightly strong and slightly cause irritation: 2
  C: number of panels, acid taste/acid smell slightly unpleasant: 2
  Flavor judgment: number of panels who judged acid taste/acid smell quality the highest: 0
  N: number of panels, irritation of acid reduced to give a mild acid taste: 0
  X: number of panels, acid taste reduced but piercing odor characteristic to aldehydes unpleasant: 0
[1]; 0.5 ppt
  A: number of panels, acid taste/acid smell extreme and cause irritation: 0
  B: number of panels, acid taste/acid smell slightly strong and slightly cause irritation: 2
  C: number of panels, acid taste/acid smell slightly unpleasant: 2
  Flavor judgment: number of panels who judged acid taste/acid smell quality the highest: 1
  N: number of panels, irritation of acid reduced to give a mild acid taste: 6
  X: number of panels, acid taste reduced but piercing odor characteristic to aldehydes unpleasant: 0
[1]; 1 ppb
  A: number of panels, acid taste/acid smell extreme and cause irritation: 0
  B: number of panels, acid taste/acid smell slightly strong and slightly cause irritation: 0
  C: number of panels, acid taste/acid smell slightly unpleasant: 2
  Flavor judgment: number of panels who judged acid taste/acid smell quality the highest: 0
  N: number of panels, irritation of acid reduced to give a mild acid taste: 4
  X: number of panels, acid taste reduced but piercing odor characteristic to aldehydes unpleasant: 4
[1]; 1 ppt
  A: number of panels, acid taste/acid smell extreme and cause irritation: 0
  B: number of panels, acid taste/acid smell slightly strong and slightly cause irritation: 2
  C: number of panels, acid taste/acid smell slightly unpleasant: 2
  Flavor judgment: number of panels who judged acid taste/acid smell quality the highest: 1
  N: number of panels, irritation of acid reduced to give a mild acid taste: 6
  X: number of panels, acid taste reduced but piercing odor characteristic to aldehydes unpleasant: 0
[1]; 5 ppt
  A: number of panels, acid taste/acid smell extreme and cause irritation: 0
  B: number of panels, acid taste/acid smell slightly strong and slightly cause irritation: 1
  C: number of panels, acid taste/acid smell slightly unpleasant: 2
  Flavor judgment: number of panels who judged acid taste/acid smell quality the highest: 4
  N: number of panels, irritation of acid reduced to give a mild acid taste: 7
  X: number of panels, acid taste reduced but piercing odor characteristic to aldehydes unpleasant: 0
[1]; 10 ppb
  A: number of panels, acid taste/acid smell extreme and cause irritation: 0
  B: number of panels, acid taste/acid smell slightly strong and slightly cause irritation: 0
  C: number of panels, acid taste/acid smell slightly unpleasant: 1
  Flavor judgment: number of panels who judged acid taste/acid smell quality the highest: 0
  N: number of panels, irritation of acid reduced to give a mild acid taste: 3
  X: number of panels, acid taste reduced but piercing odor characteristic to aldehydes unpleasant: 6
[1]; 20 ppt
  A: number of panels, acid taste/acid smell extreme and cause irritation: 0
  B: number of panels, acid taste/acid smell slightly strong and slightly cause irritation: 0
  C: number of panels, acid taste/acid smell slightly unpleasant: 3
  Flavor judgment: number of panels who judged acid taste/acid smell quality the highest: 4
  N: number of panels, irritation of acid reduced to give a mild acid taste: 7
  X: number of panels, acid taste reduced but piercing odor characteristic to aldehydes unpleasant: 0
[1]; 50 ppb
  A: number of panels, acid taste/acid smell extreme and cause irritation: 0
  B: number of panels, acid taste/acid smell slightly strong and slightly cause irritation: 0
  C: number of panels, acid taste/acid smell slightly unpleasant: 1
  Flavor judgment: number of panels who judged acid taste/acid smell quality the highest: 0
  N: number of panels, irritation of acid reduced to give a mild acid taste: 2
  X: number of panels, acid taste reduced but piercing odor characteristic to aldehydes unpleasant: 7
[1]; 100 ppt
  A: number of panels, acid taste/acid smell extreme and cause irritation: 0
  B: number of panels, acid taste/acid smell slightly strong and slightly cause irritation: 0
  C: number of panels, acid taste/acid smell slightly unpleasant: 4
  Flavor judgment: number of panels who judged acid taste/acid smell quality the highest: 0
  N: number of panels, irritation of acid reduced to give a mild acid taste: 4
  X: number of panels, acid taste reduced but piercing odor characteristic to aldehydes unpleasant: 2
[1]; 500 ppt
  A: number of panels, acid taste/acid smell extreme and cause irritation: 0
  B: number of panels, acid taste/acid smell slightly strong and slightly cause irritation: 0
  C: number of panels, acid taste/acid smell slightly unpleasant: 3
  Flavor judgment: number of panels who judged acid taste/acid smell quality the highest: 0
  N: number of panels, irritation of acid reduced to give a mild acid taste: 4
  X: number of panels, acid taste reduced but piercing odor characteristic to aldehydes unpleasant: 3
[2]; 0.005 ppt
  A: number of panels, acid taste/acid smell extreme and cause irritation: 10
  B: number of panels, acid taste/acid smell slightly strong and slightly cause irritation: 0
  C: number of panels, acid taste/acid smell slightly unpleasant: 0
  Flavor judgment: number of panels who judged acid taste/acid smell quality the highest: 0
  N: number of panels, irritation of acid reduced to give a mild acid taste: 0
  X: number of panels, acid taste reduced but piercing odor characteristic to aldehydes unpleasant: 0
[2]; 0.02 ppt
  A: number of panels, acid taste/acid smell extreme and cause irritation: 8
  B: number of panels, acid taste/acid smell slightly strong and slightly cause irritation: 2
  C: number of panels, acid taste/acid smell slightly unpleasant: 0
  Flavor judgment: number of panels who judged acid taste/acid smell quality the highest: 0
  N: number of panels, irritation of acid reduced to give a mild acid taste: 0
  X: number of panels, acid taste reduced but piercing odor characteristic to aldehydes unpleasant: 0
[2]; 0.1 ppt
  A: number of panels, acid taste/acid smell extreme and cause irritation: 7
  B: number of panels, acid taste/acid smell slightly strong and slightly cause irritation: 2
  C: number of panels, acid taste/acid smell slightly unpleasant: 1
  Flavor judgment: number of panels who judged acid taste/acid smell quality the highest: 0
  N: number of panels, irritation of acid reduced to give a mild acid taste: 0
  X: number of panels, acid taste reduced but piercing odor characteristic to aldehydes unpleasant: 0
[2]; 0.2 ppt
  A: number of panels, acid taste/acid smell extreme and cause irritation: 3
  B: number of panels, acid taste/acid smell slightly strong and slightly cause irritation: 4
  C: number of panels, acid taste/acid smell slightly unpleasant: 3
  Flavor judgment: number of panels who judged acid taste/acid smell quality the highest: 0
  N: number of panels, irritation of acid reduced to give a mild acid taste: 0
  X: number of panels, acid taste reduced but piercing odor characteristic to aldehydes unpleasant: 0
[2]; 0.5 ppt
  A: number of panels, acid taste/acid smell extreme and cause irritation: 0
  B: number of panels, acid taste/acid smell slightly strong and slightly cause irritation: 2
  C: number of panels, acid taste/acid smell slightly unpleasant: 3
  Flavor judgment: number of panels who judged acid taste/acid smell quality the highest: 1
  N: number of panels, irritation of acid reduced to give a mild acid taste: 5
  X: number of panels, acid taste reduced but piercing odor characteristic to aldehydes unpleasant: 0
[2]; 1 ppb
  A: number of panels, acid taste/acid smell extreme and cause irritation: 0
  B: number of panels, acid taste/acid smell slightly strong and slightly cause irritation: 0
  C: number of panels, acid taste/acid smell slightly unpleasant: 2
  Flavor judgment: number of panels who judged acid taste/acid smell quality the highest: 0
  N: number of panels, irritation of acid reduced to give a mild acid taste: 4
  X: number of panels, acid taste reduced but piercing odor characteristic to aldehydes unpleasant: 4
[2]; 1 ppt
  A: number of panels, acid taste/acid smell extreme and cause irritation: 0
  B: number of panels, acid taste/acid smell slightly strong and slightly cause irritation: 2
  C: number of panels, acid taste/acid smell slightly unpleasant: 2
  Flavor judgment: number of panels who judged acid taste/acid smell quality the highest: 1
  N: number of panels, irritation of acid reduced to give a mild acid taste: 6
  X: number of panels, acid taste reduced but piercing odor characteristic to aldehydes unpleasant: 0
[2]; 5 ppt
  A: number of panels, acid taste/acid smell extreme and cause irritation: 0
  B: number of panels, acid taste/acid smell slightly strong and slightly cause irritation: 0
  C: number of panels, acid taste/acid smell slightly unpleasant: 2
  Flavor judgment: number of panels who judged acid taste/acid smell quality the highest: 4
  N: number of panels, irritation of acid reduced to give a mild acid taste: 8
  X: number of panels, acid taste reduced but piercing odor characteristic to aldehydes unpleasant: 0
[2]; 10 ppb
  A: number of panels, acid taste/acid smell extreme and cause irritation: 0
  B: number of panels, acid taste/acid smell slightly strong and slightly cause irritation: 0
  C: number of panels, acid taste/acid smell slightly unpleasant: 1
  Flavor judgment: number of panels who judged acid taste/acid smell quality the highest: 0
  N: number of panels, irritation of acid reduced to give a mild acid taste: 2
  X: number of panels, acid taste reduced but piercing odor characteristic to aldehydes unpleasant: 7
[2]; 20 ppt
  A: number of panels, acid taste/acid smell extreme and cause irritation: 0
  B: number of panels, acid taste/acid smell slightly strong and slightly cause irritation: 0
  C: number of panels, acid taste/acid smell slightly unpleasant: 3
  Flavor judgment: number of panels who judged acid taste/acid smell quality the highest: 4
  N: number of panels, irritation of acid reduced to give a mild acid taste: 7
  X: number of panels, acid taste reduced but piercing odor characteristic to aldehydes unpleasant: 0
[2]; 50 ppb
  A: number of panels, acid taste/acid smell extreme and cause irritation: 0
  B: number of panels, acid taste/acid smell slightly strong and slightly cause irritation: 0
  C: number of panels, acid taste/acid smell slightly unpleasant: 1
  Flavor judgment: number of panels who judged acid taste/acid smell quality the highest: 0
  N: number of panels, irritation of acid reduced to give a mild acid taste: 1
  X: number of panels, acid taste reduced but piercing odor characteristic to aldehydes unpleasant: 8
[2]; 100 ppt
  A: number of panels, acid taste/acid smell extreme and cause irritation: 0
  B: number of panels, acid taste/acid smell slightly strong and slightly cause irritation: 1
  C: number of panels, acid taste/acid smell slightly unpleasant: 4
  Flavor judgment: number of panels who judged acid taste/acid smell quality the highest: 0
  N: number of panels, irritation of acid reduced to give a mild acid taste: 4
  X: number of panels, acid taste reduced but piercing odor characteristic to aldehydes unpleasant: 1
[2]; 500 ppt
  A: number of panels, acid taste/acid smell extreme and cause irritation: 0
  B: number of panels, acid taste/acid smell slightly strong and slightly cause irritation: 0
  C: number of panels, acid taste/acid smell slightly unpleasant: 4
  Flavor judgment: number of panels who judged acid taste/acid smell quality the highest: 0
  N: number of panels, irritation of acid reduced to give a mild acid taste: 4
  X: number of panels, acid taste reduced but piercing odor characteristic to aldehydes unpleasant: 2
